According to patent US8637310B2, “Use of a rock inhibitor to sustain primary human keratinocytes in a proliferative state” (The United States of America, as represented by the …, priority 2008, dated 2014):

Experiments:
Myc = test: Immunodetection of Myc; type: cell-based, human
Method: Proteins were extracted in 2% sodium dodecyl sulfate (SDS), 50 mM Tris-HCl (pH 6.8), 10% glycerol supplemented with inhibitors Complete and PhosphoSTOP (Roche, Indianapolis, Ind.). Protein samples were resolved on NuPage gels, electrotransferred to Immobilon-P membrane (Millipore, Billerica, Mass.), and probed with the relevant antibodies before detection by chemiluminescence. Monoclonal antibody against p53 (DO-1) was obtained from Santa Cruz Biotechnology (Santa Cruz, Calif.). Monoclonal antibody against α-tubulin (B-5-1-2) was obtained from Sigma-Aldrich. Polyclonal antibodies against Myc (N-262), p21 (C-19), and p16 (C-20) were obtained from Santa Cruz Biotechnology.

airway epithelial cells = settings: Moore et al. 2004; cited from earlier work
keratinocytes = test: Organotypic raft culture (differentiation, stratification); type: cell-based, human
Method: Organotypic cultures were generated as described previously with modifications. (Banerjee et al., Methods Mol. Med. 119: 187-202, 2005). Briefly, 1×10^5 keratinocytes were seeded onto a rat tail type 1 collagen dermal equivalent containing 1−2×10^6 J2 3T3 feeder cells. The rafts were lifted onto stainless steel grids and were fed by diffusion from below with raft medium [3:1 (v/v) DMEM-F-12 (Ham), 10% FBS, 0.4 μg/ml hydrocortisone, 0.1 nM cholera toxin, and 5 μg/ml transferring]. Raft cultures were allowed to stratify and differentiate for 11-17 days. The collagen-epithelial rafts were fixed in formalin for 4 hours, paraffin embedded, sectioned and stained with hematoxylin and eosin (H&E) or by immunofluorescence as described in Pei et al. (Methods Mol. Med. 119: 49-59, 2005). Monoclonal antibody against anti-keratin 14 (K14) (Ab-1) was from Thermo Fisher Scientific, Fremont, Calif. Goat polyclonal antiserum against Filaggrin (N-20) and rabbit polyclonal antiserum against involucrin (H-120) were from Santa Cruz Biotechnology.

HPV16 = HPV16 genome copy number in W12 cells; type: cell-based, human papillomavirus; settings: 10 μM Y-27632, FIG. 8
Method: The 9E and W12 (20863 clone) cell lines were cultured in F-media on irradiated J2 feeder cells. For the Y-27632 experiments they were cultured in F-medium with or without 10 μM Y-27632 and continually passed for the times indicated.
Cloned viral genomes were cleaved with restriction enzymes to separate viral and vector sequences. The genomes were religated at a concentration of 5 μg/ml to favor intramolecular circularization. Prior to electroporation, J2 feeder cells were removed from the keratinocytes by versene treatment and the HFKs were collected by trypsinization. HFKs (1×10^6) were electroporated with 2 μg of re-circularized viral genomic DNA using the Amaxa Nucleofector II electroporator and the Human Keratinocyte Nucleofector Kit. The Amaxa program optimized for cell survival was used according to the manufacturer's specifications. Cells were removed from the cuvettes immediately following electroporation, and seeded onto 10 cm plates containing irradiated feeder cells and F-medium, in the presence or absence of 10 μM Y-27632, as indicated. At various times post-transfection, low molecular weight DNA was isolated by a modified Hirt extraction procedure (Ustav et al., EMBO J. 10:449-457, 1991). For Southern blot analysis, the isolated DNA was linearized with EcoRI or BamHI, depending on cloning site for each viral genome, and DpnI, to digest any unreplicated input DNA. […]

[1] = tested on: foreskin keratinocyte line (strain a); test: Karyotype analysis of immortalized cells; type: cell-based, human; settings: HFK strain a, 95 passages in Y-27632
Method: This was conducted by Molecular Diagnostic Services, Inc. San Diego, Calif. Metaphase spreads were prepared and stained to observe chromosomal G bands.
Twenty metaphase spreads of each cell line was analyzed and five complete karyotypes were prepared from each.

[2] = tested on: human vaginal keratinocytes (HVK); test: Long-term culture / immortalization of primary human vaginal keratinocytes on feeder cells; type: cell-based; settings: 10 μM Y-27632; FIG. 9
Method: The HPV18 cell line was established by introducing the HPV18 genome into primary HFKs using the Amaxa human keratinocyte nucleofection system. Primary human cervical keratinocytes (HCKs), human vaginal keratinocytes (HVKs), the HPV18 cell lines and the HPV31 positive cell line (CIN-612 9E) were grown in the presence or absence of 10 μM Y-27632 (Alexis Biochemicals), as indicated. Cells were subcultured by removing the fibroblast feeder cells with versene and keratinocytes were collected by trypsinization. At each pass, 2×10^5 cells were plated on a 10 cm plate of J2 feeder cells. Population doubling was calculated as: PD=3.32(log(# cells harvested/# cells seeded)). Immunodetection

CC(N)[C@H]1CC[C@H](C(=O)Nc2ccncc2)CC1 (single isomer, unassigned; (+)) [Y-27632, (+)-trans-N-(4-Pyridyl)-4-(1-aminoethyl)-cyclohexanecarboxamide]
Myc protein levels (Myc; immediately after culture with Y-27632, HFK, HCK, HVK, FIG. 12A): induced transiently
level of Myc (Myc; very late passages (p107), FIG. 16): equivalent to that of an HPV31-containing cell line
effect on airway epithelial cells (airway epithelial cells): induces membrane ruffling, loss of actin stress fibers and apoptosis
differentiation and stratification (keratinocytes; 10 μM Y-27632 added to the organotypic raft culture medium): no differentiation or stratification were observed
formation of stratified epithelium (keratinocytes; cells cultured in Y-27632 for 18 passages and late pass, raft media without Y-27632): could also produce a stratified epithelium in organotypic culture
expression of keratin 14, involucrin and filaggrin (keratinocytes; raft tissue from Y-27632-treated cells, immunofluorescence): expressed these differentiation markers in the appropriate layer
HPV16 copy number (HPV16): partially rescued the decline in copy number
karyotype of immortalized cells [1]: identical to that of the donor cells
bypass of senescence [2]: efficiently bypassed senescence with no observed decline in growth rate
cellular proliferation [2]: dramatic increase in cellular proliferation
